{
  "source": "patent US11541055B2",
  "about": "“Inhibitors of human immunodeficiency virus replication” (ViiV Healthcare UK (No. 5) LIMITED, priority 2018, dated 2023)",
  "key": {"[1]": {"tested_on": "recombinant NL4-3 virus (Renilla luciferase) in MT-2 cells", "test": "HIV cell culture assay (antiviral activity, luciferase readout)", "type": "cell-based", "settings": "Renilla, NL43", "procedure,_shortened": "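MT-2 cells were infected with recombinant NL4-3 virus carrying Renilla luciferase in place of part of nef. Cells were cultured 4–5 days with serially diluted compound, and luciferase was measured with a live-cell substrate. EC50 was calculated from the median effect equation.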"}, "[2]": {"test": "Compound cytotoxicity, XTT-based colorimetric assay", "type": "cell-based", "settings": "human; uninfected MT2 cells, day 4, XTT", "procedure,_shortened": "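Run under the antiviral-assay protocol but without virus. Viability was read on day 4 and CC50 values were derived from the readout.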"}},
  "data": [
    {"smiles": "COc1cnc(C)nc1-c1ccc2c(=O)n(-c3ccc(Cl)c4c(NS(C)(=O)=O)nn(C)c34)c([C@H](Cc3cc(F)cc(F)c3)NC(=O)Cn3nc(C(F)F)c4c3C(F)(F)[C@@H]3C[C@H]43)nc2c1", "note": "(atropisomer, axis not shown; (P)) [Example 9, N—((S)-1-((3P)-3-(4-chloro-1-methyl-3-(methylsulfonamido)-1H-indazol-7-yl)-7-(5-methoxy-2-methylpyrimidin-4-yl)-4-oxo-3,4-dihydroquinazolin-2-yl)-2-(3,5-difluorophenyl)ethyl)-2-((3bS,4aR)-3-(difluoromethyl)-5,5-difluoro-3b,4,4a,5-tetrahydro-1H-cyclopropa[3,4]cyclopenta[1,2-c]pyrazol-1-yl)acetamide]", "values": [
      {"measurement": "EC50", "setting": "[1]", "value": 0.058, "unit": "nM"},
      {"measurement": "CC50 at 4 days", "setting": "[2]", "value": "> 500", "unit": "nM"}
    ]},
    {"smiles": "Cc1cc(C(C)C)nc(-c2ccc3c(=O)n(-c4ccc(Cl)c5c(NS(C)(=O)=O)nn(C)c45)c([C@H](Cc4cc(F)cc(F)c4)NC(=O)Cn4nc(C(F)F)c5c4C(F)(F)[C@@H]4C[C@H]54)nc3c2)n1", "note": "(atropisomer, axis not shown; (P)) [Example 37, N—((S)-1-((3P)-3-(4-chloro-1-methyl-3-(methylsulfonamido)-1H-indazol-7-yl)-7-(4-isopropyl-6-methylpyrimidin-2-yl)-4-oxo-3,4-dihydroquinazolin-2-yl)-2-(3,5-difluorophenyl)ethyl)-2-((3bS,4aR)-3-(difluoromethyl)-5,5-difluoro-3b,4,4a,5-tetrahydro-1H-cyclopropa[3,4]cyclopenta[1,2-c]pyrazol-1-yl)acetamide]", "values": [
      {"measurement": "EC50", "setting": "[1]", "value": 0.16, "unit": "nM"},
      {"measurement": "CC50 at 4 days", "setting": "[2]", "value": "> 500", "unit": "nM"}
    ]},
    {"smiles": "Cc1cc(C(F)(F)F)cc(-c2ccc3c(=O)n(-c4ccc(Cl)c5c(NS(C)(=O)=O)nn(C)c45)c([C@H](Cc4cc(F)cc(F)c4)NC(=O)Cn4nc(C(F)F)c5c4C(F)(F)[C@@H]4C[C@H]54)nc3c2)n1", "note": "(atropisomer, axis not shown; (P)) [Example 48, N—((S)-1-((3P)-3-(4-chloro-1-methyl-3-(methylsulfonamido)-1H-indazol-7-yl)-7-(6-methyl-4-(trifluoromethyl)pyridin-2-yl)-4-oxo-3,4-dihydroquinazolin-2-yl)-2-(3,5-difluorophenyl)ethyl)-2-((3bS,4aR)-3-(difluoromethyl)-5,5-difluoro-3b,4,4a,5-tetrahydro-1H-cyclopropa[3,4]cyclopenta[1,2-c]pyrazol-1-yl)acetamide]", "values": [
      {"measurement": "EC50", "setting": "[1]", "value": 0.5, "unit": "nM"},
      {"measurement": "CC50 at 4 days", "setting": "[2]", "value": "> 500", "unit": "nM"}
    ]},
    {"smiles": "Cc1cc(C)nc(-c2ccc3c(=O)n(-c4ccc(Cl)c5c(NS(=O)(=O)C6CC6)nn(CC(F)F)c45)c([C@H](Cc4cc(F)cc(F)c4)NC(=O)Cn4nc(C(F)F)c5c4C(F)(F)[C@@H]4C[C@H]54)nc3c2)c1", "note": "(atropisomer, axis not shown; (P)) [Example 83, N—((S)-1-((3P)-3-(4-chloro-3-(cyclopropanesulfonamido)-1-(2,2-difluoroethyl)-1H-indazol-7-yl)-7-(4,6-dimethylpyridin-2-yl)-4-oxo-3,4-dihydroquinazolin-2-yl)-2-(3,5-difluorophenyl)ethyl)-2-((3bS,4aR)-3-(difluoromethyl)-5,5-difluoro-3b,4,4a,5-tetrahydro-1H-cyclopropa[3,4]cyclopenta[1,2-c]pyrazol-1-yl)acetamide]", "values": [
      {"measurement": "EC50", "setting": "[1]", "value": 0.44, "unit": "nM"},
      {"measurement": "CC50 at 4 days", "setting": "[2]", "value": "> 500", "unit": "nM"}
    ]},
    {"smiles": "CN(c1ccccc1-c1ccc2c(=O)n(-c3ccc(Cl)c4c(NS(=O)(=O)C5CC5)nn(CC(F)F)c34)c([C@H](Cc3cc(F)cc(F)c3)NC(=O)Cn3nc(C(F)F)c4c3C(F)(F)[C@@H]3C[C@H]43)nc2c1)S(C)(=O)=O", "note": "(atropisomer, axis not shown) [Example 144]", "values": [
      {"measurement": "EC50", "setting": "[1]", "value": 0.18, "unit": "nM"},
      {"measurement": "CC50 at 4 days", "setting": "[2]", "value": "> 500", "unit": "nM"}
    ]},
    {"smiles": "Cc1ccc(-c2ccc3c(=O)n(-c4ccc(Cl)c5c(NS(C)(=O)=O)nn(CC(F)F)c45)c([C@H](Cc4cc(F)cc(F)c4)NC(=O)Cn4nc(C(F)F)c5c4C(F)(F)[C@@H]4C[C@H]54)nc3c2)nn1", "note": "(atropisomer, axis not shown) [Example 134, N-[(1S)-1-{3-[4-chloro-1-(2,2-difluoroethyl)-3-methanesulfonamido-1H-indazol-7-yl]-7-(6-methylpyridazin-3-yl)-4-oxo-3,4-dihydroquinazolin-2-yl}-2-(3,5-difluorophenyl)ethyl]-2-[(2S,4R)-9-(difluoromethyl)-5,5-difluoro-7,8-diazatricyclo[4.3.0.0^2,^4]nona-1(6),8-dien-7-yl]acetamide]", "values": [
      {"measurement": "EC50", "setting": "[1]", "value": 0.032, "unit": "nM"},
      {"measurement": "CC50 at 4 days", "setting": "[2]", "value": "> 500", "unit": "nM"}
    ]},
    {"smiles": "CCc1ncncc1-c1ccc2c(=O)n(-c3ccc(Cl)c4c(NS(C)(=O)=O)nn(C)c34)c([C@H](Cc3cc(F)cc(F)c3)NC(=O)Cn3nc(C(F)F)c4c3C(F)(F)[C@@H]3C[C@H]43)nc2c1", "note": "(atropisomer, axis not shown; (P)) [Example 60, N—((S)-1-((3P)-3-(4-chloro-1-methyl-3-(methylsulfonamido)-1H-indazol-7-yl)-7-(4-ethylpyrimidin-5-yl)-4-oxo-3,4-dihydroquinazolin-2-yl)-2-(3,5-difluorophenyl)ethyl)-2-((3bS,4aR)-3-(difluoromethyl)-5,5-difluoro-3b,4,4a,5-tetrahydro-1H-cyclopropa[3,4]cyclopenta[1,2-c]pyrazol-1-yl)acetamide]", "values": [
      {"measurement": "EC50", "setting": "[1]", "value": 0.077, "unit": "nM"},
      {"measurement": "CC50 at 4 days", "setting": "[2]", "value": "> 500", "unit": "nM"}
    ]},
    {"smiles": "Cc1ccc(-c2ccc3c(=O)n(-c4ccc(Cl)c5c(NS(=O)(=O)C6CC6)nn(CC(F)F)c45)c([C@H](Cc4cc(F)cc(F)c4)NC(=O)Cn4nc(C(F)F)c5c4C(F)(F)[C@@H]4C[C@H]54)nc3c2)nn1", "note": "(atropisomer, axis not shown; (P)) [Example 88, N—((S)-1-((3P)-3-(4-chloro-3-(cyclopropanesulfonamido)-1-(2,2-difluoroethyl)-1H-indazol-7-yl)-7-(6-methylpyridazin-3-yl)-4-oxo-3,4-dihydroquinazolin-2-yl)-2-(3,5-difluorophenyl)ethyl)-2-((3bS,4aR)-3-(difluoromethyl)-5,5-difluoro-3b,4,4a,5-tetrahydro-1H-cyclopropa[3,4]cyclopenta[1,2-c]pyrazol-1-yl)acetamide]", "values": [
      {"measurement": "EC50", "setting": "[1]", "value": 0.058, "unit": "nM"},
      {"measurement": "CC50 at 4 days", "setting": "[2]", "value": "> 500", "unit": "nM"}
    ]},
    {"smiles": "Cn1nc(NS(C)(=O)=O)c2c(Cl)ccc(-n3c([C@H](Cc4cc(F)cc(F)c4)NC(=O)Cn4nc(C(F)F)c5c4C(F)(F)[C@@H]4C[C@H]54)nc4cc(-c5nccc(C(F)F)n5)ccc4c3=O)c21", "note": "(atropisomer, axis not shown; (P)) [Example 56, N—((S)-1-((3P)-3-(4-chloro-1-methyl-3-(methylsulfonamido)-1H-indazol-7-yl)-7-(4-(difluoromethyl)pyrimidin-2-yl)-4-oxo-3,4-dihydroquinazolin-2-yl)-2-(3,5-difluorophenyl)ethyl)-2-((3bS,4aR)-3-(difluoromethyl)-5,5-difluoro-3b,4,4a,5-tetrahydro-1H-cyclopropa[3,4]cyclopenta[1,2-c]pyrazol-1-yl)acetamide]", "values": [
      {"measurement": "EC50", "setting": "[1]", "value": 0.056, "unit": "nM"},
      {"measurement": "CC50 at 4 days", "setting": "[2]", "value": "> 500", "unit": "nM"}
    ]},
    {"smiles": "COc1nc2ccccc2nc1-c1ccc2c(=O)n(-c3ccc(Cl)c4c(NS(C)(=O)=O)nn(C)c34)c([C@H](Cc3cc(F)cc(F)c3)NC(=O)Cn3nc(C(F)F)c4c3C(F)(F)[C@@H]3C[C@H]43)nc2c1", "note": "(atropisomer, axis not shown; (P)) [Example 19, N—((S)-1-((3P)-3-(4-chloro-1-methyl-3-(methylsulfonamido)-1H-indazol-7-yl)-7-(3-methoxyquinoxalin-2-yl)-4-oxo-3,4-dihydroquinazolin-2-yl)-2-(3,5-difluorophenyl)ethyl)-2-((3bS,4aR)-3-(difluoromethyl)-5,5-difluoro-3b,4,4a,5-tetrahydro-1H-cyclopropa[3,4]cyclopenta[1,2-c]pyrazol-1-yl)acetamide]", "values": [
      {"measurement": "EC50", "setting": "[1]", "value": 5.5, "unit": "nM"},
      {"measurement": "CC50 at 4 days", "setting": "[2]", "value": "> 500", "unit": "nM"}
    ]},
    {"smiles": "CCc1cc(-c2ccc3c(=O)n(-c4ccc(Cl)c5c(NS(=O)(=O)C6CC6)nn(CC(F)F)c45)c([C@H](Cc4cc(F)cc(F)c4)NC(=O)Cn4nc(C(F)F)c5c4C(F)(F)[C@@H]4C[C@H]54)nc3c2)nc(C)n1", "note": "(atropisomer, axis not shown; (P)) [Example 94, N—((S)-1-((3P)-3-(4-chloro-3-(cyclopropanesulfonamido)-1-(2,2-difluoroethyl)-1H-indazol-7-yl)-7-(6-ethyl-2-methylpyrimidin-4-yl)-4-oxo-3,4-dihydroquinazolin-2-yl)-2-(3,5-difluorophenyl)ethyl)-2-((3bS,4aR)-3-(difluoromethyl)-5,5-difluoro-3b,4,4a,5-tetrahydro-1H-cyclopropa[3,4]cyclopenta[1,2-c]pyrazol-1-yl)acetamide]", "values": [
      {"measurement": "EC50", "setting": "[1]", "value": 0.13, "unit": "nM"},
      {"measurement": "CC50 at 4 days", "setting": "[2]", "value": "> 500", "unit": "nM"}
    ]},
    {"smiles": "CN(c1cccc(-c2ccc3c(=O)n(-c4ccc(Cl)c5c(NS(=O)(=O)C6CC6)nn(CC(F)F)c45)c([C@H](Cc4cc(F)cc(F)c4)NC(=O)Cn4nc(C(F)F)c5c4C(F)(F)[C@@H]4C[C@H]54)nc3c2)c1)S(C)(=O)=O", "note": "(atropisomer, axis not shown) [Example 148, N-[(1S)-1-{3-[4-chloro-3-cyclopropanesulfonamido-1-(2,2-difluoroethyl)-1H-indazol-7-yl]-7-[3-(N-methylmethanesulfonamido)phenyl]-4-oxo-3,4-dihydroquinazolin-2-yl}-2-(3,5-difluorophenyl)ethyl]-2-[(2S,4R)-9-(difluoromethyl)-5,5-difluoro-7,8-diazatricyclo[4.3.0.0^2,^4]nona-1(6),8-dien-7-yl]acetamide]", "values": [
      {"measurement": "EC50", "setting": "[1]", "value": 0.28, "unit": "nM"},
      {"measurement": "CC50 at 4 days", "setting": "[2]", "value": "> 500", "unit": "nM"}
    ]},
    {"smiles": "COc1cnc(-c2ccc3c(=O)n(-c4ccc(Cl)c5c(NS(C)(=O)=O)nn(CC(F)F)c45)c([C@H](Cc4cc(F)cc(F)c4)NC(=O)Cn4nc(C(F)F)c5c4C(F)(F)[C@@H]4C[C@H]54)nc3c2)nc1", "note": "(atropisomer, axis not shown) [Example 124, N-[(1S)-1-{3-[4-chloro-1-(2,2-difluoroethyl)-3-methanesulfonamido-1H-indazol-7-yl]-7-(5-methoxypyrimidin-2-yl)-4-oxo-3,4-dihydroquinazolin-2-yl}-2-(3,5-difluorophenyl)ethyl]-2-[(2S,4R)-9-(difluoromethyl)-5,5-difluoro-7,8-diazatricyclo[4.3.0.0^2,^4]nona-1(6),8-dien-7-yl]acetamide]", "values": [
      {"measurement": "EC50", "setting": "[1]", "value": 0.092, "unit": "nM"},
      {"measurement": "CC50 at 4 days", "setting": "[2]", "value": "> 500", "unit": "nM"}
    ]}
  ]
}
